The results in this text go back to patent US8722849B2, “Polypeptides” (Novo Nordisk A/S, priority 2011, dated 2014).

Each structure is given as a SMILES string. Converted amounts (≈) assume the structure as drawn. Like-named read-outs stand apart in the source and are kept apart here. Starred links: 1 amine or outer side, 2 acyl side, 3 side chain; linkers in the order of their positions; H or OH if unused. Positions of bridges follow the written chain, without caps; N, C: chain ends. Residues, ends and D or L forms follow the SMILES beside them. *: point of attachment. C20 diacid = O=C(O)CCCCCCCCCCCCCCCCCCC(=O)*; γGlu = O=C(O)[C@H](CCC(=O)[*:2])N[*:1]

One data set relates to food intake. Briefly: Assay (I) efficacy testing on appetite (food intake), ad libitum fed rat model. Particulars: 3 nmol/kg. It is filed as in vivo, Sprague Dawley (SD) rats. The procedure, abridged: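 Food consumption was logged per animal every hour up to 7 h and again at 24 h (occasionally 48 h) after a single 0.01–3 mg/kg dose, given sc, po or ip at dark-phase onset. Ad libitum fed SD rats, 200–250 g, kept on inverted light/dark cycle; vehicle group included, outliers removed by Grubbs test.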

Data set [1] is described as follows: Assay (IV) determination of solubility. It is filed as physicochemical. In short, it runs like this:
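Stock ~500 nmol/ml in water; 1:1 with 100 mM buffer, pH 3.0–8.0 (glycylglycine ≤5.0, bistrispropane ≥6.0); 18 h RT; spin; HPLC quantitation of soluble polypeptide.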

The target of data set [2] is T1, human calcitonin receptor (Homo sapiens, UniProt P30988).
T1 construct: expressed in transfected cells; host or cells: BHK570
T1 sequence (P30988 25-474): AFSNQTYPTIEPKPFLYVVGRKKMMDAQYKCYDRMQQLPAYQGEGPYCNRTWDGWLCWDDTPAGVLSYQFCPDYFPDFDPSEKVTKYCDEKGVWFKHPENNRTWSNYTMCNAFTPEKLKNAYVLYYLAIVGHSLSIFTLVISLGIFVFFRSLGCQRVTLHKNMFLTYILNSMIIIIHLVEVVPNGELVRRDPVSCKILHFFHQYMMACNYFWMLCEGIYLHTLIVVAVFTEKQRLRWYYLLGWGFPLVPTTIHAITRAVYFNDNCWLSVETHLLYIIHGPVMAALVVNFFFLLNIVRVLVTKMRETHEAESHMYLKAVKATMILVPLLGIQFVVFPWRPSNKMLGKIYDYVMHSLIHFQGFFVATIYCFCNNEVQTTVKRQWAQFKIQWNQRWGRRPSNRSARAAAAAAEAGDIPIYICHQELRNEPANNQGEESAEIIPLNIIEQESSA
Briefly: Assay (II)a functional CRE-luciferase assay, human calcitonin receptor. The settings on record: Table 7; human calcitonin (CTa) receptor. In kind it is cell-based.

For data set [3], the target named is T2, human amylin receptor (amylin 3(a) receptor: human calcitonin receptor + RAMP-3) (Homo sapiens, UniProt O60896+P30988).
T2 construct: expressed in transfected cells; host or cells: BHK570
T2 sequence (P30988 25-474): T1 sequence (P30988 25-474)
T2 sequence (O60896 24-148 partner): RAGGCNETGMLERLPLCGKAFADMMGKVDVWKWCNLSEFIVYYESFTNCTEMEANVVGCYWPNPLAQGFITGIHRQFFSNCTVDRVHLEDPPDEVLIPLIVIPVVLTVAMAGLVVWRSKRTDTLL
Briefly: Assay (II)a functional CRE-luciferase assay, human amylin receptor. It is filed as cell-based.

A short description of data set [4]: Assay (III) ThT fibrillation assay for physical stability. Particulars: ThT fibrillation assay. In kind it is physicochemical. The procedure, abridged:
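Freshly prepared formulations, pH-adjusted, with 1 μM ThT; four or eight replicates incubated at 37 °C under 960 rpm orbital shaking. Fluorescence (ex 444/em 485 nm) read every 20 min; […]. Peptide concentration measured by RP-HPLC before and after the run.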

Data set [5] addresses T3, rat calcitonin (a) receptor (Rattus norvegicus, UniProt P32214).
T3 construct: expressed in transfected cells; host or cells: BHK tk'ts 13
T3 sequence (P32214 25-479 isoform P32214-2 limits assumed): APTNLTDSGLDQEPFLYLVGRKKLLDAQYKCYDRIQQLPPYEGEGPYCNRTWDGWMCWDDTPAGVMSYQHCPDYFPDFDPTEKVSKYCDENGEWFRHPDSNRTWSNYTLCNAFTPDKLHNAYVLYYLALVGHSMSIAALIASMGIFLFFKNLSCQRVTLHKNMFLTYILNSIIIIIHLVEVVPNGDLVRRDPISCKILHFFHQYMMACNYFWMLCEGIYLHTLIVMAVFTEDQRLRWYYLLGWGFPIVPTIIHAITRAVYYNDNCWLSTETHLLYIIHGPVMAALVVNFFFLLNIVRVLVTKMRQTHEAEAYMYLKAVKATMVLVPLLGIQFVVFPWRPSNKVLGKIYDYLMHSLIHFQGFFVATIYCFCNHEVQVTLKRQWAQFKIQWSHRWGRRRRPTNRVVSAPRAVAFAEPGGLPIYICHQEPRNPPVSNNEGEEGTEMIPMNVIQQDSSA
Briefly: Assay (II)b functional cAMP FlashPlate assay, rat calcitonin receptor. It is filed as cell-based. The settings on record: Table 11; read-out: CTa receptor rat EC50. The text has this:
(§1) Assay (II)b—Rat Calcitonin and Rat Amylin Receptor Assays
(§2) Activation of calcitonin and amylin (coexpression of calcitonin receptor and receptor activity modifying proteins (RAMP)) receptors lead to increased intracellular concentrations of cAMP. In order to quantify the cAMP levels in transiently transfected cells the Adenylyl Cyclase Activation FlashPlate® Assay from […] was used. The basic principle of the FlashPlate® Assay is a competition between radioactive and non-radioactive cAMP generated by the cells for a fixed number of binding sites.
(§3) Construction of rat calcitonin(a)—and rat amylin 3(a)-receptor cells.
(§4) BHK tk'ts 13 cells were transiently transfected with either rat calcitonin (a) receptor or amylin 3 (a) receptor (rat calcitonin(a) receptor+ rat RAMP3) using FuGENE® 6 (ROCHE), according to the manufacturers recommendations.
(§5) 24 hours after transient transfection the cells (rat calcitonin(a)—or rat amylin 3(a)—receptor cells) were added (100.000 cells/well) to the 96 well FlashPlates® with samples or standard in FlashPlate stimulation buffer with IBMX and incubated for 30 min. Detection mix was created according to manufacturers protocol and scintillation measured after 3 h of incubation on TopCounter™ (Packard).

For data set [6], the target named is T4, rat amylin 3(a) receptor (rat calcitonin(a) receptor + rat RAMP3) (Rattus norvegicus, UniProt P32214+Q9JJ73).
T4 construct: expressed in transfected cells; host or cells: BHK tk'ts 13
T4 sequence (P32214 25-479 isoform P32214-2 limits assumed): T3 sequence (P32214 25-479 isoform P32214-2 limits assumed)
T4 sequence (Q9JJ73 23-147 partner): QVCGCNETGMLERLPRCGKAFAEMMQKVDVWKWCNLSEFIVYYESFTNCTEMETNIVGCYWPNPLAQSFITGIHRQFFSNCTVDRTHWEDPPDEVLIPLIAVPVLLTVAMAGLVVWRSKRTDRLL
Briefly: Assay (II)b functional cAMP FlashPlate assay, rat amylin receptor. It is filed as cell-based. Particulars: Table 11.
From the text: as §1, §2, §3, §4, §5

Turning to `CC[C@H](C)[C@H](NC(=O)[C@@H]1CCCN1C(=O)CNC(=O)[C@H](Cc1ccccc1)NC(=O)[C@H](CC(N)=O)NC(=O)[C@H](CC(N)=O)NC(=O)[C@H](CO)NC(=O)[C@H](CO)NC(=O)[C@H](CCCNC(=N)N)NC(=O)[C@H](Cc1c[nH]cn1)NC(=O)[C@H](CC(C)C)NC(=O)[C@H](Cc1ccccc1)NC(=O)[C@H](CCC(=O)O)NC(=O)[C@H](C)NC(=O)[C@H](CC(C)C)NC(=O)[C@H](CCCNC(=N)N)NC(=O)[C@H](CCC(N)=O)NC(=O)[C@@H](NC(=O)[C@H](C)NC(=O)[C@@H]1CSSC[C@H](NC(=O)CC[C@H](NC(=O)CCCCCCCCCCCCCCCCCCC(=O)O)C(=O)O)C(=O)NCC(=O)N[C@@H]([C@@H](C)O)C(=O)N[C@@H](C)C(=O)N[C@@H]([C@@H](C)O)C(=O)N1)[C@@H](C)O)C(=O)N[C@@H](CC(C)C)C(=O)N1CCC[C@H]1C(=O)N1CCC[C@H]1C(=O)N[C@H](C(=O)N[C@@H](CCC(=O)O)C(=O)N[C@H](C(=O)NCC(=O)N[C@@H](CO)C(=O)NCC(=O)N[C@H](C(=O)N[C@@H](Cc1ccc(O)cc1)C(N)=O)[C@@H](C)O)C(C)C)[C@@H](C)O` [Example 3, N-alpha-[(S)-4-Carboxy-4-(19-carboxynonadecanoylamino)butyryl]-[des1,Gly3,Glu14,His17,Arg18,Glu31,Gly35]-pramlintide] ({C20 diacid-γGlu}-CGTATCATQRLAEFLHRSSNNFGPILPPTEVGSGTY-NH2; disulfide 1-6 (inferred)), in the data set with food intake, the “Food intake reduction 0-24 h 3 nmol/kg (%)” value came to 37%. The “Food intake reduction 24-48 h 3 nmol/kg (%)” value in the data set with food intake stood at 32%. Also, the solubility at 18 h in data set [1] (bistrispropane buffer, pH 6, pH 6.0, read-out: Solubility pH 6.0) was greater than 200 µM; in data set [1] (bistrispropane buffer, pH 6.5, pH 6.5, read-out: Solubility pH 6.5), greater than 200 µM; in data set [1] (bistrispropane buffer, pH 7, pH 7.0, 18 hours at room temperature, Table 3, read-out: Solubility pH 7.0), greater than 200 µM; in data set [1] (bistrispropane buffer, pH 7, pH 7.0, read-out: Solubility pH 7.0), greater than 200 µM; in data set [1] (bistrispropane buffer, pH 7.5, pH 7.5, read-out: Solubility pH 7.5), greater than 200 µM; in data set [1] (bistrispropane buffer, pH 8, pH 8.0, read-out: Solubility pH 8.0), greater than 200 µM. The solubility at 18 h was greater than 200 µM in data set [1] (glycylglycine buffer, pH 3, pH 3.0, read-out: Solubility pH 3.0); greater than 200 µM in data set [1] (glycylglycine buffer, pH 4, pH 4.0, 18 hours at room temperature, Table 2, read-out: Solubility pH 4.0); greater than 200 µM in data set [1] (glycylglycine buffer, pH 4, pH 4.0, read-out: Solubility pH 4.0); 68 µM (≈ 289 µg/mL) in data set [1] (glycylglycine buffer, pH 5, pH 5.0, read-out: Solubility pH 5.0). Further, the EC50 worked out at 0.222 nM in data set [2] and 0.164 nM in data set [3] (Table 2, BHK amylin 3(a)-receptor/CRE-luc cells).
In the case of `CC[C@H](C)[C@H](NC(=O)[C@@H]1CCCN1C(=O)CNC(=O)[C@H](Cc1ccccc1)NC(=O)[C@H](CC(N)=O)NC(=O)[C@H](CC(N)=O)NC(=O)[C@H](CO)NC(=O)[C@H](CO)NC(=O)[C@H](Cc1c[nH]cn1)NC(=O)[C@H](Cc1c[nH]cn1)NC(=O)[C@H](CC(C)C)NC(=O)[C@H](Cc1ccccc1)NC(=O)[C@H](CCC(=O)O)NC(=O)[C@H](C)NC(=O)[C@H](CC(C)C)NC(=O)[C@H](CCCNC(=N)N)NC(=O)[C@H](CCC(N)=O)NC(=O)[C@@H](NC(=O)[C@H](C)NC(=O)[C@@H]1CSSC[C@H](NC(=O)[C@H](CCC(=O)O)NC(=O)CC[C@H](NC(=O)CCCCCCCCCCCCCCCCCCC(=O)O)C(=O)O)C(=O)N[C@@H](CC(N)=O)C(=O)N[C@@H]([C@@H](C)O)C(=O)N[C@@H](C)C(=O)N[C@@H]([C@@H](C)O)C(=O)N1)[C@@H](C)O)C(=O)N[C@@H](CC(C)C)C(=O)N1CCC[C@H]1C(=O)N1CCC[C@H]1C(=O)N[C@H](C(=O)N[C@@H](CC(N)=O)C(=O)N[C@H](C(=O)NCC(=O)N[C@@H](CO)C(=O)N[C@@H](CC(N)=O)C(=O)N[C@H](C(=O)N[C@@H](Cc1ccc(O)cc1)C(N)=O)[C@@H](C)O)C(C)C)[C@@H](C)O` [Example 29, N-alpha-[(S)-4-Carboxy-4-(19-carboxynonadecanoylamino)butyryl]-[Glu1,Glu14,His17]-pramlintide] ({C20 diacid-γGlu}-ECNTATCATQRLAEFLHHSSNNFGPILPPTNVGSNTY-NH2; disulfide 2-7 (inferred)), the “ThT pH 4.0 lag time (h)” value in data set [4] amounted to 3 h. Moreover, in the data set on food intake, the “Food intake reduction 0-24 h 3 nmol/kg (%)” value worked out at 15% and the “Food intake reduction 24-48 h 3 nmol/kg (%)” value amounted to 5%.
For `CC(C)C[C@H](NC(=O)[C@H](CCCNC(=N)N)NC(=O)[C@H](CCC(N)=O)NC(=O)[C@@H](NC(=O)[C@H](C)NC(=O)[C@@H]1CSSC[C@H](NC(=O)[C@H](CCC(=O)O)NC(=O)CC[C@H](NC(=O)CCCCCCCCCCCCCCCCCCC(=O)O)C(=O)O)C(=O)NCC(=O)N[C@@H]([C@@H](C)O)C(=O)N[C@@H](C)C(=O)N[C@@H]([C@@H](C)O)C(=O)N1)[C@@H](C)O)C(=O)N[C@@H](C)C(=O)N[C@@H](CCC(=O)O)C(=O)N[C@@H](Cc1ccccc1)C(=O)N[C@@H](CC(C)C)C(=O)N[C@H](C(=O)N[C@@H](CCCNC(=N)N)C(=O)N[C@@H](CO)C(=O)N[C@@H](CO)C(=O)N[C@@H](CO)C(=O)N[C@@H](CO)C(=O)N[C@@H](Cc1ccccc1)C(=O)NCC(=O)N[C@@H](C)C(=O)N1CCC[C@H]1C(=O)N[C@@H](CC(C)C)C(=O)N[C@@H](CO)C(=O)N[C@@H](CO)C(=O)N[C@H](C(=O)N[C@@H](CCC(=O)O)C(=O)N[C@H](C(=O)NCC(=O)N[C@@H](CO)C(=O)N[C@@H](CCCNC(=N)N)C(=O)N[C@H](C(=O)N[C@@H](Cc1ccc(O)cc1)C(N)=O)[C@@H](C)O)C(C)C)[C@@H](C)O)C(C)C` [Example 24, N-alpha-[(S)-4-Carboxy-4-(19-carboxynonadecanoylamino)butyryl]-[Glu1,Gly3,Glu14,Arg18,Ser21,Ser22,Ala25,Pro26,Ser28,Ser29,Glu31,Arg35]-pramlintide] ({C20 diacid-γGlu}-ECGTATCATQRLAEFLVRSSSSFGAPLSSTEVGSRTY-NH2; disulfide 2-7 (inferred); C-terminus assumed), the EC50 came out at 1.75 nM in data set [5]; 0.672 nM in data set [2]; 1.44 nM in data set [3] (Table 6, human amylin receptor); 4.51 nM in data set [6].

By solubility is commonly meant the dissolved amount per volume that the medium holds. For orientation: EC50 means the concentration at which the effect is half-maximal.
